Laboratory results from ChEMBL document CHEMBL1201862, “PubChem BioAssay data set” (2004).
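Each compound was tested at five concentrations against cells in 96-well plates for 48 hours. The concentration for 50% growth inhibition is given as GI50.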 Activity calls are given as the source filed them. Rule as the data show it: active = GI50 up to about 1.1 µM and inactive = higher.

How the values were obtained:
Assay in all cases: DTP human tumour cell line panel, 48 h
SW-620 = tested on: SW-620
CCRF-CEM = tested on: CCRF-CEM
SK-MEL-5 = tested on: SK-MEL-5
SN12C = tested on: SN12C
A498 = tested on: A498
RPMI-8226 = tested on: RPMI-8226
RXF 393 = tested on: RXF 393
IGROV-1 = tested on: IGROV-1
HCT-15 = tested on: HCT-15
DU-145 = tested on: DU-145
OVCAR-5 = tested on: OVCAR-5
SNB-75 = tested on: SNB-75
HT-29 = tested on: HT-29
Hs-578T = tested on: Hs-578T
HOP-62 = tested on: HOP-62
NCI-H23 = tested on: NCI-H23
OVCAR-8 = tested on: OVCAR-8
UO-31 = tested on: UO-31
LOX IMVI = tested on: LOX IMVI
SR = tested on: SR

Structure (SMILES) | GI50 (SW-620) | GI50 (CCRF-CEM) | GI50 (SK-MEL-5) | GI50 (SN12C) | GI50 (A498) | GI50 (RPMI-8226) | GI50 (RXF 393) | GI50 (IGROV-1) | GI50 (HCT-15) [µM] | GI50 (DU-145) | GI50 (OVCAR-5) | GI50 (SNB-75) | GI50 (HT-29) | GI50 (Hs-578T) | GI50 (HOP-62) | GI50 (NCI-H23) | GI50 (OVCAR-8) | GI50 (UO-31) | GI50 (LOX IMVI) | GI50 (SR)
NCCCCNCCCNC(=O)c1csc(-c2nc(CCN)sc2Cl)n1 | > 100 µM (inactive) | > 100 µM (inactive) | > 100 µM (inactive) | > 100 µM (inactive) | > 100 µM (inactive) | > 100 µM (inactive) | > 100 µM (inactive) | > 100 µM (inactive) | > 100 | > 100 µM (inactive) | > 100 µM (inactive) | > 100 µM (inactive) | > 100 µM (inactive) | > 100 µM (inactive) | > 100 µM (inactive) | > 100 µM (inactive) | > 100 µM (inactive) | > 100 µM (inactive) | – | –
Cc1[nH]nc(C(=O)N/N=C/c2cccs2)c1/N=N\N(C)C | 15.3 µM (inactive) | 2.52 µM (inactive) | 19.6 µM (inactive) | 22 µM (inactive) | 23.4 µM (inactive) | 18.3 µM (inactive) | 14.6 µM (inactive) | 11.1 µM (inactive) | 13.7 | 9.53 µM (inactive) | 29.7 µM (inactive) | 2.89 µM (inactive) | 3.31 µM (inactive) | 34.5 µM (inactive) | 17 µM (inactive) | 12.6 µM (inactive) | 11.6 µM (inactive) | 2.49 µM (inactive) | 4.3 µM (inactive) | –
Cc1c2ccccc2c(=O)n2c(-c3ccccn3)cccc12 | > 100 µM (inactive) | > 100 µM (inactive) | > 100 µM (inactive) | > 100 µM (inactive) | 29.8 µM (inactive) | > 100 µM (inactive) | > 100 µM (inactive) | > 100 µM (inactive) | > 100 | – | > 10 µM (inactive) | > 100 µM (inactive) | > 100 µM (inactive) | – | > 100 µM (inactive) | > 100 µM (inactive) | > 100 µM (inactive) | > 100 µM (inactive) | > 100 µM (inactive) | 54 µM (inactive)
COC(=O)/C(=N\O)C(C(=O)C=C(C)C)C(=O)C(=O)Nc1ccccc1C (stereo unspecified) | > 100 µM (inactive) | > 100 µM (inactive) | > 100 µM (inactive) | > 100 µM (inactive) | > 100 µM (inactive) | > 100 µM (inactive) | > 100 µM (inactive) | > 100 µM (inactive) | > 100 | – | > 100 µM (inactive) | > 100 µM (inactive) | > 100 µM (inactive) | – | > 100 µM (inactive) | > 100 µM (inactive) | > 100 µM (inactive) | > 100 µM (inactive) | > 100 µM (inactive) | > 100 µM (inactive)
COc1ccc(C(=O)N(C(=S)OCCOc2ccccc2)c2ccccc2)cc1 | 50 µM (inactive) | 14.9 µM (inactive) | – | 43.8 µM (inactive) | 18.4 µM (inactive) | 14.6 µM (inactive) | 26.5 µM (inactive) | > 100 µM (inactive) | 44.2 | 37.1 µM (inactive) | 88.3 µM (inactive) | 1.63 µM (inactive) | 40.4 µM (inactive) | 65.2 µM (inactive) | 71.3 µM (inactive) | 32.4 µM (inactive) | 52.2 µM (inactive) | 0.0457 µM (active) | 52 µM (inactive) | –
CC(C)(C)OC(=O)N1CCC[C@H]1CSC[C@@H]1CCCN1C(=O)OC(C)(C)C | 30.3 µM (inactive) | 24.2 µM (inactive) | 18.7 µM (inactive) | 32.2 µM (inactive) | – | – | 24.8 µM (inactive) | 43.4 µM (inactive) | 27.9 | 44 µM (inactive) | 34.2 µM (inactive) | 23.9 µM (inactive) | 17.8 µM (inactive) | 27 µM (inactive) | 41.5 µM (inactive) | 20.7 µM (inactive) | 29.3 µM (inactive) | 26.2 µM (inactive) | 17.6 µM (inactive) | –
O=c1[nH]nc(Nc2ccccc2)c2nnn(C3CCCCC3)c12 | – | > 100 µM (inactive) | > 100 µM (inactive) | > 100 µM (inactive) | – | > 100 µM (inactive) | – | – | > 100 | > 100 µM (inactive) | > 100 µM (inactive) | – | > 100 µM (inactive) | – | > 100 µM (inactive) | > 100 µM (inactive) | > 100 µM (inactive) | > 100 µM (inactive) | > 100 µM (inactive) | > 100 µM (inactive)
O=Cc1c(O)ccc2ccc(O)c(-c3c(O)ccc4ccc(O)cc34)c12 | > 100 µM (inactive) | 99.3 µM (inactive) | > 100 µM (inactive) | > 100 µM (inactive) | 43.2 µM (inactive) | > 100 µM (inactive) | 44.4 µM (inactive) | > 100 µM (inactive) | > 100 | – | > 100 µM (inactive) | 88.7 µM (inactive) | > 100 µM (inactive) | – | > 100 µM (inactive) | > 100 µM (inactive) | > 100 µM (inactive) | > 100 µM (inactive) | > 100 µM (inactive) | 67.9 µM (inactive)
O=c1n(-c2ccccc2)c(=O)n2c(-c3ccccc3)c(-c3ccccc3)n12 | > 100 µM (inactive) | 31.4 µM (inactive) | > 100 µM (inactive) | > 100 µM (inactive) | > 100 µM (inactive) | – | 15.9 µM (inactive) | > 100 µM (inactive) | 82.4 | – | > 100 µM (inactive) | 76.9 µM (inactive) | 70.1 µM (inactive) | > 100 µM (inactive) | > 100 µM (inactive) | > 100 µM (inactive) | > 100 µM (inactive) | 66.4 µM (inactive) | 72.1 µM (inactive) | 27 µM (inactive)
CCC1=CC2Cc3nc4cc(Cl)ccc4c(N)c3C(C1)C2 (stereo unspecified) | 8.91 µM (inactive) | 3.35 µM (inactive) | 1.57 µM (inactive) | 12.5 µM (inactive) | 4.86 µM (inactive) | 2.03 µM (inactive) | 2.65 µM (inactive) | 2.72 µM (inactive) | 7.21 | 11.2 µM (inactive) | 5.62 µM (inactive) | 6.35 µM (inactive) | 3.02 µM (inactive) | 5.08 µM (inactive) | 8.2 µM (inactive) | 5.52 µM (inactive) | 12.8 µM (inactive) | 4.92 µM (inactive) | 4.54 µM (inactive) | –
CCOC(=O)C(NC(=O)c1ccccc1)(Nc1cc(C)on1)C(F)(F)F (stereo unspecified) | > 100 µM (inactive) | > 100 µM (inactive) | > 100 µM (inactive) | > 100 µM (inactive) | – | > 100 µM (inactive) | > 100 µM (inactive) | > 100 µM (inactive) | > 100 | > 100 µM (inactive) | > 100 µM (inactive) | > 100 µM (inactive) | > 100 µM (inactive) | > 100 µM (inactive) | > 100 µM (inactive) | > 100 µM (inactive) | > 100 µM (inactive) | > 100 µM (inactive) | > 100 µM (inactive) | –
COc1ccc(C(=O)C#Cc2cn(C3CC(O)C(CO)O3)c(=O)[nH]c2=O)cc1 (stereo unspecified) | 43.1 µM (inactive) | > 10 µM (inactive) | 28.4 µM (inactive) | 28.7 µM (inactive) | – | > 100 µM (inactive) | 52.2 µM (inactive) | > 100 µM (inactive) | > 100 | > 100 µM (inactive) | – | > 100 µM (inactive) | > 100 µM (inactive) | 30.6 µM (inactive) | > 100 µM (inactive) | > 100 µM (inactive) | > 100 µM (inactive) | > 100 µM (inactive) | – | –
O=C(CN1CCOCC1)Nc1ccc2c(c1)C1Oc3ccccc3CC1CO2 (stereo unspecified) | > 100 µM (inactive) | > 100 µM (inactive) | 58.9 µM (inactive) | > 100 µM (inactive) | > 100 µM (inactive) | > 100 µM (inactive) | – | > 100 µM (inactive) | > 100 | > 100 µM (inactive) | > 100 µM (inactive) | – | > 100 µM (inactive) | – | > 100 µM (inactive) | > 100 µM (inactive) | > 100 µM (inactive) | > 100 µM (inactive) | > 100 µM (inactive) | > 100 µM (inactive)
COc1ccc(Cc2c(N)[nH]c(=O)n(C)c2=O)cc1 | > 100 µM (inactive) | – | > 100 µM (inactive) | 42.8 µM (inactive) | > 100 µM (inactive) | > 100 µM (inactive) | > 100 µM (inactive) | > 100 µM (inactive) | 92.7 | – | > 100 µM (inactive) | 11.9 µM (inactive) | 47.5 µM (inactive) | 45.1 µM (inactive) | 31.1 µM (inactive) | > 100 µM (inactive) | > 100 µM (inactive) | 5 µM (inactive) | 56 µM (inactive) | –
Clc1ccc(OCc2nnc(CCCCCCCCc3nnc(COc4ccc(Cl)cc4)o3)o2)cc1 | > 100 µM (inactive) | – | > 100 µM (inactive) | 43.8 µM (inactive) | > 100 µM (inactive) | > 100 µM (inactive) | 47.3 µM (inactive) | – | > 100 | 68.7 µM (inactive) | > 100 µM (inactive) | 68.2 µM (inactive) | > 100 µM (inactive) | – | – | 79.3 µM (inactive) | – | > 100 µM (inactive) | – | –
CC(=O)OCC1OC(c2c(OC(C)=O)cc(C)c3c(=O)cc(/C(C(C)=O)=C(\C)O)oc23)C(OC(C)=O)C(OC(C)=O)C1OC(C)=O (stereo unspecified) | > 100 µM (inactive) | > 100 µM (inactive) | > 100 µM (inactive) | > 100 µM (inactive) | – | > 100 µM (inactive) | > 100 µM (inactive) | > 100 µM (inactive) | > 100 | > 100 µM (inactive) | > 100 µM (inactive) | 49.5 µM (inactive) | > 100 µM (inactive) | 84.9 µM (inactive) | > 100 µM (inactive) | > 100 µM (inactive) | > 100 µM (inactive) | > 100 µM (inactive) | – | > 100 µM (inactive)
